Data: ChEMBL document CHEMBL1201862, “PubChem BioAssay data set” (2004)
Calls of active or inactive are those of the source.

Legend:
[1] = target: RNA-editing ligase 1, mitochondrial (Trypanosoma brucei brucei, UniProt P86926); experiment: inhibition of trypanosome RNA editing ligase – biochemical, fluorescence, Trypanosoma brucei, dose response (AID 1117295); assay type: functional
MDCK [2] = experiment: antiviral activity against H1N1 influenza, dose response, cell-based, strain KY180 (AID 540254); assay type: functional; conditions: Canis lupus familiaris
Nonstructural protein 1 = Nonstructural protein 1 (Influenza A virus, UniProt Q194T2); assay type: functional, Influenza A virus (A/California/07/2009(H1N1))
Nonstructural protein 1, sequence (Q194T2 whole entry): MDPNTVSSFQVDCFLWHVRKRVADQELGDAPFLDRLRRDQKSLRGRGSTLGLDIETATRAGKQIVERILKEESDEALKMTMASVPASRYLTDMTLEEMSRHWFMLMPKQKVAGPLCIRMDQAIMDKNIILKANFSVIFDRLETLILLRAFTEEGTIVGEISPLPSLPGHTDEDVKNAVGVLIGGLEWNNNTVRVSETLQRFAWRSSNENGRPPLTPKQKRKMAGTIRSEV

MDCK [3] = experiment: MDCK cell cytotoxicity, dose response, cytotoxicity control (AID 540296); assay type: functional; conditions: Canis lupus familiaris
Vero = experiment: Vero E6 cell cytotoxicity, dose response, cytotoxicity control (AID 540298); assay type: functional; conditions: Chlorocebus sabaeus
[4] = target: DNA dC->dU-editing enzyme APOBEC-3G (Homo sapiens, UniProt Q9HC16); experiment: Dose Response confirmation of small molecule APOBEC3G DNA Deaminase Inhibitors via a fluorescence-based single-stranded DNA deaminase assay. [Related pubchem assays (depositor defined):AID493012, AID493028]; assay type: functional
DNA dC->dU-editing enzyme APOBEC-3G, sequence (Q9HC16 whole entry, the tested form may be a part): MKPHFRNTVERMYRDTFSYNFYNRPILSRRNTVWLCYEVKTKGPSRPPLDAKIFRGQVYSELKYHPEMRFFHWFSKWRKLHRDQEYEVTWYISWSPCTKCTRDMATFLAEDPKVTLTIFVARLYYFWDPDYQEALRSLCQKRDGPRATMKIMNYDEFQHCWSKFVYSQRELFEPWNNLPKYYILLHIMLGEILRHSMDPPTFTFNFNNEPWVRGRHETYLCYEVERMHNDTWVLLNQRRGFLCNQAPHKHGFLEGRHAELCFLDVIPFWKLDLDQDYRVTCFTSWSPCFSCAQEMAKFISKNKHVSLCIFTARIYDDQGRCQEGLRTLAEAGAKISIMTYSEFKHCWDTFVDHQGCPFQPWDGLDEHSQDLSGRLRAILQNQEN

[5] = target: T1, Carboxy-terminal domain RNA polymerase II polypeptide A small phosphatase 1 (Homo sapiens, UniProt Q9GZU7); experiment: CTDSP1 inhibitors, concentration-response, biochemical, absorbance readout, ultra-high-throughput screen actives (AID 540297); assay type: functional
T1 sequence (Q9GZU7 whole entry): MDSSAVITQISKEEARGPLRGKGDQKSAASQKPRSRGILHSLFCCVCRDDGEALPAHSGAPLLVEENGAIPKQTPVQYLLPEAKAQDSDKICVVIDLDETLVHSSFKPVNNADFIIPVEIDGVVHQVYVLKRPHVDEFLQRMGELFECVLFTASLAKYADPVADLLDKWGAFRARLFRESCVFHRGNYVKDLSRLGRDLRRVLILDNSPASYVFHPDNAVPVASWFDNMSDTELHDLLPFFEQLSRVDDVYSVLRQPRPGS

[6] = target: Induced myeloid leukemia cell differentiation protein Mcl-1 (Homo sapiens, UniProt Q07820); assay type: functional
Induced myeloid leukemia cell differentiation protein Mcl-1, sequence (Q07820 whole entry): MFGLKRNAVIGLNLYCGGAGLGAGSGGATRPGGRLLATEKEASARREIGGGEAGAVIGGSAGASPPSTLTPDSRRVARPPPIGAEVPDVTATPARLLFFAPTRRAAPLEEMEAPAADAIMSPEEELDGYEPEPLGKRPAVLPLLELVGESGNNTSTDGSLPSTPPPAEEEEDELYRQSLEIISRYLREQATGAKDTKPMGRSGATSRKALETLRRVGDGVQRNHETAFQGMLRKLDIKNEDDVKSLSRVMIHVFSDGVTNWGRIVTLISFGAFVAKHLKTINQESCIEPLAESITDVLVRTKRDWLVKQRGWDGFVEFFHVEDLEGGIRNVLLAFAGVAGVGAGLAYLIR

[7] = target: DNA dC->dU-editing enzyme APOBEC-3A (Homo sapiens, UniProt P31941); experiment: A3A deaminase inhibition for selectivity – biochemical, dose response (AID 504722); assay type: functional
DNA dC->dU-editing enzyme APOBEC-3A, sequence (P31941 whole entry): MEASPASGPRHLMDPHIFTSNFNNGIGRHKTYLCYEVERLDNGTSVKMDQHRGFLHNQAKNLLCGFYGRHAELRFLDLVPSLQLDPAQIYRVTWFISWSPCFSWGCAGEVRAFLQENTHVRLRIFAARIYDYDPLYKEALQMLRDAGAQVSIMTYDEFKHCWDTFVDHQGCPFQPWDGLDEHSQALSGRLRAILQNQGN

[8] = target: T2, Small ubiquitin-related modifier 1 (Homo sapiens, UniProt P63165); experiment: SUMO1 protein-protein binding blockers, potency – biochemical, FRET, dose response (AID 624383); assay type: functional; conditions: read-out: IC50_Mean
T2 sequence (P63165 whole entry): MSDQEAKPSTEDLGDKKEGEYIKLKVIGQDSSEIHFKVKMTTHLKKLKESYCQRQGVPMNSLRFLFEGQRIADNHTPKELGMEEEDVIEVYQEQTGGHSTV

[9] = target: T2, Small ubiquitin-related modifier 1; experiment: SUMO1 protein interaction blockers, potency – biochemical, fluorescence polarization, uHTS hits, dose response (AID 624382); assay type: functional; conditions: read-out: IC50_Mean
[10] = target: Beta-adrenergic receptor kinase 1 (Homo sapiens, UniProt P25098); experiment: aptamer displacement from bead-bound GRK2 – biochemical, cherry pick 1, bead flow cytometry, dose response (AID 504500)
Beta-adrenergic receptor kinase 1, sequence (P25098 whole entry): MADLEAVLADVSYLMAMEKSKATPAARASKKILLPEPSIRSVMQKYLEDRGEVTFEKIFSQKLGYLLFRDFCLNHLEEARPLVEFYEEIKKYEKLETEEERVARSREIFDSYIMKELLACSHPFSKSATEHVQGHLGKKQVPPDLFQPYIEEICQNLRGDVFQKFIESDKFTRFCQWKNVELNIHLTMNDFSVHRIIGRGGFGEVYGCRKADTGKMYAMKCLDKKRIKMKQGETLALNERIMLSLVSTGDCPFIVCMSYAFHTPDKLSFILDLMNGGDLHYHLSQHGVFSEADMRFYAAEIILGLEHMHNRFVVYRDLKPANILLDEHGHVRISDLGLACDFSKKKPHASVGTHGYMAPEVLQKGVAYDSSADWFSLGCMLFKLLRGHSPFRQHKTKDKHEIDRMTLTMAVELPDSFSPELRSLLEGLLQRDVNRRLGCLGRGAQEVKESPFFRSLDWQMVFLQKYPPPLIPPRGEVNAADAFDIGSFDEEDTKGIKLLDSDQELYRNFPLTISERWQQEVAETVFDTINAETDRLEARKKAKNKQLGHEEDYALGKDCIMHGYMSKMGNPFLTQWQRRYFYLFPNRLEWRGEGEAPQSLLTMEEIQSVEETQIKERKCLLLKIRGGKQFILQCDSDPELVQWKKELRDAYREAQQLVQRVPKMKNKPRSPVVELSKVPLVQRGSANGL

[11] = target: T3, Apoptotic protease-activating factor 1 (Homo sapiens, UniProt O14727); experiment: activation of Apaf-1 mediated apoptosis – fluorescent, uHTS hits, dose response (AID 588554); assay type: functional
T3 sequence (O14727 whole entry): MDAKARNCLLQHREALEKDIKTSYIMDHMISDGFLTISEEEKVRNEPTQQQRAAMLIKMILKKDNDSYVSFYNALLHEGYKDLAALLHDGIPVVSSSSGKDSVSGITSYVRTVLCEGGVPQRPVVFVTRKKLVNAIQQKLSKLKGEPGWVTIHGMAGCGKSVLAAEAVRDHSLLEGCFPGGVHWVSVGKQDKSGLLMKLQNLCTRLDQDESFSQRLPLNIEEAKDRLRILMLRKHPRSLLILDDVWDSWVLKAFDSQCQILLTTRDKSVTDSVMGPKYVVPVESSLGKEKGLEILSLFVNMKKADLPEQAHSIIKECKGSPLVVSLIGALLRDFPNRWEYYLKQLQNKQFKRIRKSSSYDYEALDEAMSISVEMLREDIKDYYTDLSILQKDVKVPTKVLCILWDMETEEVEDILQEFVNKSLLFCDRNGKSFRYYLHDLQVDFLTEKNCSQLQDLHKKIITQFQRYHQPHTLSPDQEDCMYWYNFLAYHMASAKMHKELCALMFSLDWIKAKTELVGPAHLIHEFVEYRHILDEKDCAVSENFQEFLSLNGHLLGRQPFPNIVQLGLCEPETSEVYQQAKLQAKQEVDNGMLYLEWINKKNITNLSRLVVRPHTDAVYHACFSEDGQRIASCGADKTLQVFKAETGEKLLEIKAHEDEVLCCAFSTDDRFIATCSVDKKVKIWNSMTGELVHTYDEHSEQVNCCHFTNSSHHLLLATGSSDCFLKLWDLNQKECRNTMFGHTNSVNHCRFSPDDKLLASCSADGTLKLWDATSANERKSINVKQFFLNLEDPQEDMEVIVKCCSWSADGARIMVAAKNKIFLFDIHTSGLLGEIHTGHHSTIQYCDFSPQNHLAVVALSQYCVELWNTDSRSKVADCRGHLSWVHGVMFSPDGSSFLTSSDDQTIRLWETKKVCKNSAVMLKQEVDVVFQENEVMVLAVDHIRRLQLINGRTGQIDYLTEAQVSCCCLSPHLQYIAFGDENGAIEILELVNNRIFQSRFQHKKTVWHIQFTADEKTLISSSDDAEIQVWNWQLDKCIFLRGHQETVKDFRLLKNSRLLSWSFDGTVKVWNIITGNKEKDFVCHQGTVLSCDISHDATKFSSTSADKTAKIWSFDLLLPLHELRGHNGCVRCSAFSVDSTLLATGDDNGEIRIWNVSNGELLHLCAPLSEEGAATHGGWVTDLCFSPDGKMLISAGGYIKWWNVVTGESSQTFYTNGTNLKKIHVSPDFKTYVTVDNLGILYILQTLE

[12] = Luminescence Cell-Based Dose Response Follow up to Identify Inhibitors of Platelet Dense Granule Release. [Related pubchem assays (depositor defined):AID1663, AID1678, AID2398]; assay type: functional
[13] = blockers of SFLLRN-triggered platelet ATP secretion – cell-based, human platelets, luminescence, dry powder, dose response (AID 493100); assay type: functional
[14] = target: T4, Sentrin-specific protease 6 (Homo sapiens, UniProt Q9GZR1); experiment: SAR Analysis of small molecule inhibitors of Sentrin-specific protease 6 (SENP6) using a Luminescent assay. [Related pubchem assays (depositor defined):AID2582, AID2599]; assay type: functional
T4 sequence (Q9GZR1 whole entry): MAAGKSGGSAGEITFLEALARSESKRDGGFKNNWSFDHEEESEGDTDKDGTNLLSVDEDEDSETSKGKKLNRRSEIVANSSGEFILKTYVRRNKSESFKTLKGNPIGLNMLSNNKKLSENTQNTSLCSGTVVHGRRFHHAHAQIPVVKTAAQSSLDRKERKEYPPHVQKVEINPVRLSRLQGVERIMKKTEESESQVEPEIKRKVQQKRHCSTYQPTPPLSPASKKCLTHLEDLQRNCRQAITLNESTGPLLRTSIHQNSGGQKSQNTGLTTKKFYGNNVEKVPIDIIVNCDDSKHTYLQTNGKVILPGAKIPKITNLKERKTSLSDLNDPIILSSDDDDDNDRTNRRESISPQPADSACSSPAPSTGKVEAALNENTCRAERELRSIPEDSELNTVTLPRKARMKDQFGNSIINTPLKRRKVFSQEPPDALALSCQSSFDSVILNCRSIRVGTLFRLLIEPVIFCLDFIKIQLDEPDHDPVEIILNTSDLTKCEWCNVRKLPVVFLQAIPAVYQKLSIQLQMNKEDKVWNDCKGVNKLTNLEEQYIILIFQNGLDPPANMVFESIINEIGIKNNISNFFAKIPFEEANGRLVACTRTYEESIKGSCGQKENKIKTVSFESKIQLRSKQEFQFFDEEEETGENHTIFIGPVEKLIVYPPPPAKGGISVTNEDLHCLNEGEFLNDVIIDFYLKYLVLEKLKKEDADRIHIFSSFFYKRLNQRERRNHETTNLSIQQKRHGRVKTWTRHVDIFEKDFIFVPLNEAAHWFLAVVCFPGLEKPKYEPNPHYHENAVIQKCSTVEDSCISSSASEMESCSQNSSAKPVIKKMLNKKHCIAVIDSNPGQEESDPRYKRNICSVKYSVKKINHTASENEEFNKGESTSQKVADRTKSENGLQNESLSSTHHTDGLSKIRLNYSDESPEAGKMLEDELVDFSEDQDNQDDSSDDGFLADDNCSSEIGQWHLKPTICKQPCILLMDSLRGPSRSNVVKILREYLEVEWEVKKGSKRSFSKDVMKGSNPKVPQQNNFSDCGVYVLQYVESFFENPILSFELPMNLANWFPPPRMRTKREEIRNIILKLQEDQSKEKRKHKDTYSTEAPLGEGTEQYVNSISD

[15] = target: T4, Sentrin-specific protease 6; experiment: inhibition of human SENP6 catalytic domain – biochemical, luminescence, set 2, SAR follow-up (AID 588598); assay type: functional
[16] = target: T5, Sentrin-specific protease 7 (Homo sapiens, UniProt Q9BQF6); experiment: inhibition of human SENP7 cleavage activity – biochemical, luminescence, set 2, SAR follow-up (AID 588600); assay type: functional
T5 sequence (Q9BQF6 whole entry): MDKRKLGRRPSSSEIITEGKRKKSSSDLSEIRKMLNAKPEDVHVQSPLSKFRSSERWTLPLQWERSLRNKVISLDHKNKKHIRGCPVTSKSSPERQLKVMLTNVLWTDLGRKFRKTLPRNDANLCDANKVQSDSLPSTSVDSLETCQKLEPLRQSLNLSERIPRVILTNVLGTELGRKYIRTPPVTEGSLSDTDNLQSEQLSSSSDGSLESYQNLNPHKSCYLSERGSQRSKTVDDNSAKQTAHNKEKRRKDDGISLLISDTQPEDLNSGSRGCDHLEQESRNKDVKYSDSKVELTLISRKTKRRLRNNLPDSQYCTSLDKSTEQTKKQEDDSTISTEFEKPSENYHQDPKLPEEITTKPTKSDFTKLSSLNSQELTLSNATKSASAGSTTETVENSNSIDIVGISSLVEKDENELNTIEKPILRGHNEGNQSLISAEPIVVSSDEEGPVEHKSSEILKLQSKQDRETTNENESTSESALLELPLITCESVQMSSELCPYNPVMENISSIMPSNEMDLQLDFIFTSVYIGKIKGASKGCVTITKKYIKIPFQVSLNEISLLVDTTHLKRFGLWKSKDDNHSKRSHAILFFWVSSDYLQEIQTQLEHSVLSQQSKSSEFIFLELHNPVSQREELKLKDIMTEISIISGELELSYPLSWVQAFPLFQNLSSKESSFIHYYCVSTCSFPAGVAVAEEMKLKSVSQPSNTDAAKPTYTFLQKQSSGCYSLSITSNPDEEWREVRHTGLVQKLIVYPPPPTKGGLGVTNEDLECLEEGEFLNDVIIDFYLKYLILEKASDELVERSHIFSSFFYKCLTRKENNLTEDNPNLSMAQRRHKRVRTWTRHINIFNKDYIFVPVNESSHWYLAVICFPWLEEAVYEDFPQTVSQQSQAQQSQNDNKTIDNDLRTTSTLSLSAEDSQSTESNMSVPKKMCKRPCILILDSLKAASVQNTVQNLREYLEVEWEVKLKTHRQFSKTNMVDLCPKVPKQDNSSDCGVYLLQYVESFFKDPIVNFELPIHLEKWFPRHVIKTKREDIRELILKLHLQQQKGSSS

[17] = target: T6, Sentrin-specific protease 8 (Homo sapiens, UniProt Q96LD8); experiment: inhibition of human SENP8 cleavage activity – biochemical, luminescence, SAR follow-up (AID 504501); assay type: functional
T6 sequence (Q96LD8 whole entry): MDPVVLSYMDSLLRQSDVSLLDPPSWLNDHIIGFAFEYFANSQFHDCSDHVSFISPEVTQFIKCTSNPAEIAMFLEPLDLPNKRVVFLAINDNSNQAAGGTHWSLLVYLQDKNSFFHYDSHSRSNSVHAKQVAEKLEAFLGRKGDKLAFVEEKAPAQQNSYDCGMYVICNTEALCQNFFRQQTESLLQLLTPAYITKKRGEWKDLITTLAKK

Caspase-3 [18] = target: T7, Caspase-3 (Homo sapiens, UniProt P42574); experiment: SAR Analysis of small molecule inhibitors of Sentrin-specific proteases (SENPs) using a Caspase-3 Selectivity assay. [Related pubchem assays (depositor defined):AID2540, AID2599, AID434973, AID489001]; assay type: functional
T7 sequence (P42574 whole entry): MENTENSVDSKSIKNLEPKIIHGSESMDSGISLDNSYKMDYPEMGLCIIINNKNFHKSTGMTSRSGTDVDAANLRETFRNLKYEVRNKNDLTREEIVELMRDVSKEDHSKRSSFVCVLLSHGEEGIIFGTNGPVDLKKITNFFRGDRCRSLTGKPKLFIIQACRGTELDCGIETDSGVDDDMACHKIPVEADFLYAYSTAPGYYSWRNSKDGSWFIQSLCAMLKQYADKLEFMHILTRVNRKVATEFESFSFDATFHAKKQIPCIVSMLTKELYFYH

[19] = target: T6, Sentrin-specific protease 8; experiment: inhibition of sentrin protease 8 – biochemical, luminescence, set 2, SAR follow-up (AID 588601); assay type: functional
[20] = target: T5, Sentrin-specific protease 7; experiment: inhibition of human SENP7 cleavage activity – biochemical, luminescence, SAR follow-up (AID 504497); assay type: functional
Caspase-3 [21] = target: T7, Caspase-3; experiment: inhibition of recombinant caspase-3 activity – biochemical, luminescence, set 2, selectivity assay for SENP protease inhibitor project, SAR follow-up (AID 588599); assay type: functional

RNA-editing ligase 1, mitochondrial, sequence (P86926 whole entry): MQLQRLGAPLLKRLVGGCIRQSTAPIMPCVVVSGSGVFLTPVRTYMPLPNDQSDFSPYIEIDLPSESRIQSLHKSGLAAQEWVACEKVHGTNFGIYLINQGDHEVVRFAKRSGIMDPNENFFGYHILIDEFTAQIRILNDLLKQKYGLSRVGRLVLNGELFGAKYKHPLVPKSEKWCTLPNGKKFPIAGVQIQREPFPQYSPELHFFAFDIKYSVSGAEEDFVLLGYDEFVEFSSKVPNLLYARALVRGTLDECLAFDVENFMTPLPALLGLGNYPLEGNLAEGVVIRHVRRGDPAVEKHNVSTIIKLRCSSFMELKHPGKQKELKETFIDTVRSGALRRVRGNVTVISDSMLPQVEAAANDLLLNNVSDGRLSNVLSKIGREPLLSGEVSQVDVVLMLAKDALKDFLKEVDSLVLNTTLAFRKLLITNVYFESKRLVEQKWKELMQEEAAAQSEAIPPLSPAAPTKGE

CCN(c1ccccc1)S(=O)(=O)c1ccc(C(=O)N(CCCN(C)C)c2nc3c(C)cccc3s2)cc1
IC50 [1]: > 96.6 µM (inactive)
IC50 (MDCK [2]): > 100 µM (active)
IC50 (Nonstructural protein 1): > 100 µM (active)
CC50 (MDCK [3]): 10.8 µM (active)
CC50 (Vero): 16 µM (active)

C=C(C)C(=O)Nc1cccc(C2=NOC3(C2)C[C@H](C(N)=O)N(C(=O)/C=C/C)C3)c1 (stereo partly drawn)
IC50 [4]: 6.14 µM (active)
IC50 [5]: 1.61 µM (active)
IC50 [6]: 3.48 µM (active)
IC50 [7]: > 100 µM (inactive)
IC50 [8]: 1.93 µM (active)
IC50 [9]: > 66.6 µM (inactive)
EC50 [10]: 21.3 µM (inactive)
EC50 [11]: 2.71 µM (active)

CCCCC(=O)N/N=C(\C)c1ccc(NC(=O)C(F)(F)F)cc1
EC50 [12]: 5.49 µM (active)
AC50 [13]: 41.3 µM (active)

COc1cc(/C=C/c2noc(-c3ccccc3O)n2)ccc1OCC(=O)O
IC50 [14]: > 99 µM (inactive)
IC50 [15]: 21.9 µM (active)
IC50 [16]: 72.3 µM (active)
IC50 [17]: > 99 µM (inactive)
IC50 (Caspase-3 [18]): 54 µM (active)
IC50 [19]: 46.3 µM (active)
IC50 [20]: 18 µM (active)
IC50 (Caspase-3 [21]): 28.2 µM (active)
